This note sets out measurements from PubChem BioAssay (NCI).

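Five concentrations, 48 hours, 96-well plates. GI50 = concentration required for 50% inhibition of growth. At the TGI there is no net growth.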 Where a SMILES comes first, the peptide text is derived from it. Side-chain parts run from the residue outwards. The star is where a group is joined. Cbz = O=C(OCc1ccccc1)*; Boc = CC(C)(C)OC(=O)* Some results are limits rather than exact numbers.

Test systems include LOX IMVI melanoma; IGROV1 ovarian; A549 NSCLC; NCI-H226 lung; SN12C renal; HOP-92 NSCLC; SF-539 CNS; NCI-H522 lung; NCI/ADR-RES ovarian; PC-3 prostate.
What all share (assay): NCI anticancer screen, dose series, 48 h

Turning to `C=CC[C@@]1(C#N)C[C@H](C[C@]2(C#N)C[C@H](CCl)OC(C)(C)O2)OC(C)(C)O1`, the TGI in the test on LOX IMVI melanoma, in the test on IGROV1 ovarian, in the test with A549 NSCLC, in the test with NCI-H226 lung, in the test on SN12C renal and in the test with HOP-92 NSCLC was > 100 µM in each case. Besides, the TGI with SF-539 CNS and in the test with NCI-H522 lung was > 100 µM in each case.
Consider `CC1=NN(C(=O)c2ccccc2)C(=O)C1N=Nc1ccccc1C(=O)O` (centres undefined), for which the TGI in the test with LOX IMVI melanoma was > 100 µM; in the test on IGROV1 ovarian, > 78.1 µM; with A549 NSCLC, > 100 µM; in the test with NCI-H226 lung it was > 73.7 µM; in the test with SN12C renal, > 100 µM; in the test on HOP-92 NSCLC it was > 100 µM. Also, the TGI in the test with SF-539 CNS was > 100 µM; in the test on NCI-H522 lung, 38 µM; in the test with NCI/ADR-RES ovarian it was > 100 µM.
For `O=C(O)c1ccc(/C=N\N(CCO)C2=NCCN2)cc1`, the TGI with LOX IMVI melanoma, with IGROV1 ovarian, with A549 NSCLC, in the test with NCI-H226 lung, in the test on SN12C renal and in the test with HOP-92 NSCLC was > 100 µM each time. The TGI in the test with PC-3 prostate and in the test on SF-539 CNS was > 100 µM in each case.
In the case of `CCOC(=O)CC(=Nc1cc(C)on1)N(CC)CC`, the TGI with IGROV1 ovarian, with A549 NSCLC, in the test on NCI-H226 lung, with SN12C renal, in the test with HOP-92 NSCLC and in the test on SF-539 CNS was > 100 µM in each case. In the test with NCI-H522 lung, the TGI is > 100 µM.
As for `CCC(C)N1CN(c2ccccc2)C2(CCN(CCCC(=O)c3ccc(F)cc3)CC2)C1=O` (centres undefined), the TGI amounted to 10.8 µM with LOX IMVI melanoma; 18.7 µM with IGROV1 ovarian; 20.4 µM with A549 NSCLC; 14.3 µM in the test on SN12C renal; 23.1 µM with PC-3 prostate; 21 µM in the test on SF-539 CNS. For the same compound, the TGI in the test with NCI-H522 lung was 20.6 µM; with NCI/ADR-RES ovarian, > 100 µM.
`O=C1CSC(c2c(O)ccc3ccccc23)N1n1c(=S)[nH]nc(/C=C/c2c(O)ccc3ccccc23)c1=O` (centres undefined): the TGI stood at 17.5 µM in the test on LOX IMVI melanoma; 26.7 µM in the test with IGROV1 ovarian; 21.8 µM with A549 NSCLC; 14.2 µM in the test with SN12C renal; 65.3 µM with HOP-92 NSCLC; 22.5 µM in the test on PC-3 prostate. Besides, the figures for the TGI in the test with NCI-H522 lung and with NCI/ADR-RES ovarian were 21 µM and 14.7 µM, respectively.
For `COc1ccc2c(c1)Cc1c-2[nH]c2cc3c(cc2c1=O)OCO3`, the TGI is 34.2 µM with LOX IMVI melanoma; 59.5 µM in the test on IGROV1 ovarian; > 100 µM in the test on A549 NSCLC; 94.3 µM in the test with NCI-H226 lung; > 100 µM in the test on SN12C renal; 48.5 µM with HOP-92 NSCLC. The TGI in the test with SF-539 CNS amounted to 30.6 µM; in the test with NCI-H522 lung, 35.1 µM.
`COC(=O)C[C@](O)(CCC(C)(C)O)C(=O)O[C@@H]1C(OC)=C[C@]23CCCN2CCc2cc4c(cc2[C@H]13)OCO4`: the TGI in the test with LOX IMVI melanoma was found to be 0.426 µM; with IGROV1 ovarian it was 0.506 µM; in the test on A549 NSCLC it was 0.45 µM; in the test with NCI-H226 lung it was 0.124 µM; in the test on SN12C renal, 1.07 µM; in the test with HOP-92 NSCLC it was 0.653 µM. Further, the TGI was 0.102 µM with SF-539 CNS, 0.0597 µM with NCI-H522 lung and 59.8 µM with NCI/ADR-RES ovarian.
Take `C[n+]1c(-c2ccc(/C=N/Nc3n[nH]c(=S)n3N/N=C/c3ccc(-c4cn5ccccc5[n+]4C)cc3)cc2)cn2ccccc21`: the TGI with IGROV1 ovarian, with A549 NSCLC, in the test on SN12C renal, with PC-3 prostate, with SF-539 CNS and in the test on NCI-H522 lung was > 100 µM in each case. Moreover, the TGI in the test with NCI/ADR-RES ovarian is > 100 µM.
Take `CN(C)C(=S)/N=c1\ssc(=S)n1Cc1ccccn1`: the TGI with LOX IMVI melanoma was > 100 µM; in the test on IGROV1 ovarian, > 100 µM; with A549 NSCLC it was > 100 µM; in the test on NCI-H226 lung, > 100 µM; with SN12C renal it was > 100 µM; in the test on HOP-92 NSCLC, 64.5 µM. Besides, the TGI with SF-539 CNS turned out to be 45.5 µM; in the test on NCI-H522 lung, 4.17 µM.
On to `CCOC(=O)C1CCn2c(nc3c(=O)n(C)c(=O)n(C)c32)S1` (centres undefined), for which the TGI in the test with LOX IMVI melanoma, in the test on IGROV1 ovarian, with A549 NSCLC, in the test on NCI-H226 lung, in the test on SN12C renal and in the test with SF-539 CNS was > 100 µM in each case. Besides, the TGI with NCI-H522 lung was > 100 µM.
As to `Cc1ccc(C(=O)NC(C)C)cc1N=NN(C)C`, the TGI in the test with LOX IMVI melanoma, in the test with IGROV1 ovarian, in the test with A549 NSCLC, in the test with SN12C renal, in the test with HOP-92 NSCLC and in the test with SF-539 CNS was > 100 µM each time. The TGI with NCI-H522 lung was > 100 µM.
In the case of `CC(C)CC(NC(=O)OCc1ccccc1)C(=O)NCCCCC(NC(=O)C(CCCCNC(=O)C(CC(C)C)NC(=O)OCc1ccccc1)NC(=O)C(CCCCNC(=O)C(CC(C)C)NC(=O)OCc1ccccc1)NC(=O)C(CCCCNC(=O)C(CC(C)C)NC(=O)OCc1ccccc1)NC(=O)OC(C)(C)C)C(=O)O` (centres undefined) (Boc-K([Leu-Cbz])K([Leu-Cbz])K([Leu-Cbz])K([Leu-Cbz])-OH; configuration not given here), the TGI in the test with LOX IMVI melanoma, in the test on IGROV1 ovarian, in the test with A549 NSCLC, with NCI-H226 lung, in the test on SN12C renal and with PC-3 prostate was > 25 µM in each case. Also, the TGI in the test with NCI-H522 lung is > 25 µM.
`Cc1cc(C)c(N)c(C)c1N`: the TGI in the test with LOX IMVI melanoma, with IGROV1 ovarian, with A549 NSCLC, in the test with SN12C renal, in the test on HOP-92 NSCLC and in the test with SF-539 CNS was > 100 µM in each case. Moreover, the TGI in the test on NCI-H522 lung is > 100 µM.
As to `Cc1noc(C)c1N=Nc1ccc2nonc2c1N`, the TGI in the test on LOX IMVI melanoma, in the test with IGROV1 ovarian, with A549 NSCLC, with SN12C renal, in the test on HOP-92 NSCLC and in the test on PC-3 prostate was > 100 µM throughout. Besides, the results for the TGI in the test with SF-539 CNS and in the test on NCI/ADR-RES ovarian were 92.5 µM and > 100 µM, respectively.
As to `O=C(Cc1ccccc1)NN1C(=O)C(Cl)C1c1ccccc1` (centres undefined), the TGI with IGROV1 ovarian was > 100 µM; in the test on A549 NSCLC it was > 100 µM; in the test on NCI-H226 lung, > 100 µM; in the test on SN12C renal, > 100 µM; in the test on NCI-H522 lung it was 3.93 µM.
Take `COC(=O)C1=C2Nc3ccccc3C23CCN2C(O)C4(CC5CC67CCOC6CCN6CCC8(c9cccc(OC)c9N(C4)C58O)C67)C4OCCC4(C1)C23` (centres undefined): the TGI in the test on LOX IMVI melanoma was > 100 µM; in the test with IGROV1 ovarian, > 100 µM; in the test with A549 NSCLC, > 100 µM; with NCI-H226 lung it was > 100 µM; in the test with SN12C renal, > 100 µM; with HOP-92 NSCLC it was 87.7 µM. Further, the TGI with PC-3 prostate, in the test with SF-539 CNS and with NCI-H522 lung was > 100 µM throughout.
Turning to `Oc1cccc2nc3cc(CN4CCOCC4)c(CN4CCOCC4)cc3nc12`, the TGI with LOX IMVI melanoma, in the test with IGROV1 ovarian, in the test on A549 NSCLC, with NCI-H226 lung, in the test on SN12C renal and in the test with HOP-92 NSCLC was > 100 µM in each case. Moreover, the TGI with SF-539 CNS and in the test with NCI-H522 lung was > 100 µM throughout.
For `CC[S+](C)c1ccc(-c2c3nc(c(-c4ccc([S+](C)CC)cc4)c4ccc([nH]4)c(-c4ccc([S+](C)CC)cc4)c4nc(c(-c5ccc([S+](C)CC)cc5)c5ccc2[nH]5)C=C4)C=C3)cc1` (centres undefined), the TGI with LOX IMVI melanoma was 23.3 µM; in the test with A549 NSCLC, > 100 µM; in the test on SN12C renal, 60.4 µM; in the test with HOP-92 NSCLC it was > 100 µM; in the test with SF-539 CNS, > 100 µM; in the test on NCI-H522 lung, > 100 µM.
On to `O=C(/C=C\c1ccc(OCCCCCC[P+](c2ccccc2)(c2ccccc2)c2ccccc2)cc1)c1ccc2c(c1)OCCO2`, for which the GI50 is 0.487 µM with HOP-92 NSCLC, 0.885 µM in the test with NCI-H522 lung and 4.31 µM in the test on NCI/ADR-RES ovarian. Besides, the TGI is 2.79 µM in the test on HOP-92 NSCLC, 4.42 µM in the test with NCI-H522 lung and > 100 µM in the test on NCI/ADR-RES ovarian.
Consider `CCc1c(-c2coc(CC/C(C)=C/c3ccccc3)n2)oc(OC)c(C)c1=O`, for which the TGI with LOX IMVI melanoma is > 50.9 µM; with IGROV1 ovarian, > 100 µM; in the test on A549 NSCLC it was > 100 µM; with NCI-H226 lung it was > 100 µM; with SN12C renal, > 62.2 µM; in the test on HOP-92 NSCLC, > 100 µM. The figures for the TGI in the test with SF-539 CNS and in the test on NCI-H522 lung were > 65 µM and 15.3 µM, respectively.
With `CCOC(=O)CCc1c(C)c2c(O)cc(O)cc2oc1=O`, the TGI with LOX IMVI melanoma, with IGROV1 ovarian, with A549 NSCLC, in the test on NCI-H226 lung, in the test on SN12C renal and with HOP-92 NSCLC was > 100 µM in each case. Besides, the TGI with SF-539 CNS, in the test on NCI-H522 lung and in the test with NCI/ADR-RES ovarian was > 100 µM each time.
For the compound `[N-]=[N+]=NC(c1cn(C2CC(O)C(CO)O2)c(=O)[nH]c1=O)C(I)I` (centres undefined), the TGI with LOX IMVI melanoma, in the test with IGROV1 ovarian, in the test on A549 NSCLC, in the test on NCI-H226 lung, in the test with SN12C renal and in the test with HOP-92 NSCLC was > 100 µM throughout. Besides, in the test with SF-539 CNS, the TGI was > 100 µM.
